Results published in paper PMC4705544, “CPUY201112, a novel synthetic small-molecule compound and inhibitor of heat shock protein Hsp90, induces p53-mediated apoptosis in MCF-7 cells” (Scientific Reports, 2016).

Biological target: T1, Hsp90α (Homo sapiens, UniProt P07900)
T1 construct: gene HSP90AA1; full-length Hsp90
Assay: BLI (ForteBio Octet Red […]); also FP competition with FITC-geldanamycin (IC50 […]) and HTRF ATPase inhibition
Format: binding

Compound CCOc1ncc2c(n1)CCN(C(=O)c1cc(C(C)C)c(O)cc1O)C2 [CPUY201112] has a Kd of 27 ± 5 nM.
